The source made the active and inactive calls. The calls are words filed in the database; no cut-off is given here.
The molecules below were run on Mus musculus (assay: Evaluated for antimalarial activity against Plasmodium berghei in mice (Mus musculus) at 90 mg/kg; active).
Assay type: functional, organism-based
Parameters: dose 90 mg/kg

| Compound | Activity |
| --- | --- |
| C=C(c1ccc(F)cc1)C1COC2(CCCCC2)OO1 (stereo unspecified) | Active |
| C=C(c1ccccc1)C1COC2(CCCC2)OO1 (stereo unspecified) | Active |
| C=C(c1ccc(F)cc1)C1COC2(CCCC2)OO1 (stereo unspecified) | Active |
| C=C(c1ccc(Cl)cc1)C1COC2(CCCCC2)OO1 (stereo unspecified) | Active |
| C=C(c1ccc(OC)cc1)C1COC2(CCCC2)OO1 (stereo unspecified) | Active |
| C=C(c1ccc(C)cc1)C1COC2(CCCC2)OO1 (stereo unspecified) | Active |
| C=C(c1ccc(Cl)cc1)C1COC2(CCCC2)OO1 (stereo unspecified) | Active |

These molecules were tested on Mus musculus (assay: Evaluated for antimalarial activity against Plasmodium berghei in mice (Mus musculus) at 90 mg/kg; inactive).
Assay type: functional, organism-based
Parameters: dose 90 mg/kg

| Compound | Activity |
| --- | --- |
| C=C(c1ccc(Cl)cc1)C1(C)COC2(CCCC2)OO1 (stereo unspecified) | inactive |
| C=C(c1ccc(Cl)cc1)C1(C)COC2(CCCCC2)OO1 (stereo unspecified) | inactive |
| C=C(c1ccc(C)cc1)C1COC2(CCCCC2)OO1 (stereo unspecified) | inactive |
| C=C(c1ccc(OC)cc1)C1COC2(CCCCC2)OO1 (stereo unspecified) | inactive |
| C=C(c1ccccc1)C1(C)COC2(CCCCC2)OO1 (stereo unspecified) | inactive |
| C=C(c1ccccc1)C1COC2(CCCCC2)OO1 (stereo unspecified) | inactive |
| C=C(c1ccccc1)C1(C)COC2(CCCC2)OO1 (stereo unspecified) | inactive |

Each molecule was assayed on Mus musculus (assay: Evaluated for antimalarial activity against Plasmodium berghei in mice (Mus musculus) at 30 mg/kg on day 6).
Assay type: functional

| Compound | Suppression [%] |
| --- | --- |
| C=C(c1ccccc1)C1COC2(CCCC2)OO1 (stereo unspecified) | >90 |
| C=C(c1ccc(Cl)cc1)C1COC2(CCCC2)OO1 (stereo unspecified) | >90 |
